Experimental data reported in the supplement of paper PMC10307832.

Key:
Assay in all cases: relative viability (nuclei count vs DMSO), 5 days (fraction); higher = more cells survive
Sorafenib = compound: CNC(=O)c1cc(Oc2ccc(NC(=O)Nc3ccc(Cl)c(C(F)(F)F)c3)cc2)ccn1 [Sorafenib]
How it was run: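 Viability was read as treated-well nuclei divided by vehicle-well nuclei, using the median across plates. Lung cancer cell lines in 1536-well plates were kept overnight at 37 °C, pinned with five √10-spaced library-drug doses, and after 5 days were Hoechst-stained, imaged at 4× and counted in MetaXpress. Plates passed only with control CV below 25% and at least one doubling.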

Sorafenib + Pemetrexed = compound: CNC(=O)c1cc(Oc2ccc(NC(=O)Nc3ccc(Cl)c(C(F)(F)F)c3)cc2)ccn1 [Sorafenib] + Nc1nc2[nH]cc(CCc3ccc(C(=O)N[C@@H](CCC(=O)O)C(=O)O)cc3)c2c(=O)[nH]1 [Pemetrexed] (partner 0.2 µM)
How it was run: (§1)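 Cells from lung cancer lines were seeded into 1536-well plates and, one day later, dosed by pin tool. Treatments were either a single drug or a fixed dose of an anchor drug with five library-drug doses (not always all listed) in √10 steps. After 5 days, nuclei were stained in a one-step fixation (final 0.05% Triton X-100, 1% formaldehyde, 1 ug/ml Hoechst) and counted on 4× images, and relative viability is the treated-to-vehicle nuclei ratio, as the median of duplicate plates.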

Sorafenib + Tozasertib = compound: CNC(=O)c1cc(Oc2ccc(NC(=O)Nc3ccc(Cl)c(C(F)(F)F)c3)cc2)ccn1 [Sorafenib] + Cc1cc(Nc2cc(N3CCN(C)CC3)nc(Sc3ccc(NC(=O)C4CC4)cc3)n2)n[nH]1 [Tozasertib] (partner 0.1 µM)
How it was run: as §1

Sorafenib + Palbociclib = compound: CNC(=O)c1cc(Oc2ccc(NC(=O)Nc3ccc(Cl)c(C(F)(F)F)c3)cc2)ccn1 [Sorafenib] + CC(=O)c1c(C)c2cnc(Nc3ccc(N4CCNCC4)cn3)nc2n(C2CCCC2)c1=O [Palbociclib] (partner 0.5 µM)
How it was run: as §1

Sorafenib + Vorinostat = compound: CNC(=O)c1cc(Oc2ccc(NC(=O)Nc3ccc(Cl)c(C(F)(F)F)c3)cc2)ccn1 [Sorafenib] + O=C(CCCCCCC(=O)Nc1ccccc1)NO [Vorinostat] (partner 1 µM)
How it was run: as §1

Sorafenib + Decitabine = compound: CNC(=O)c1cc(Oc2ccc(NC(=O)Nc3ccc(Cl)c(C(F)(F)F)c3)cc2)ccn1 [Sorafenib] + Nc1ncn([C@H]2C[C@H](O)[C@@H](CO)O2)c(=O)n1 [Decitabine] (partner 2 µM)
How it was run: as §1

Sorafenib + Trametinib = compound: CNC(=O)c1cc(Oc2ccc(NC(=O)Nc3ccc(Cl)c(C(F)(F)F)c3)cc2)ccn1 [Sorafenib] + CC(=O)Nc1cccc(-n2c(=O)n(C3CC3)c(=O)c3c(Nc4ccc(I)cc4F)n(C)c(=O)c(C)c32)c1 [Trametinib] (partner 0.02 µM)
How it was run: as §1

Sorafenib + OSI-027 = compound: CNC(=O)c1cc(Oc2ccc(NC(=O)Nc3ccc(Cl)c(C(F)(F)F)c3)cc2)ccn1 [Sorafenib] + COc1cccc2cc(-c3nc([C@H]4CC[C@H](C(=O)O)CC4)n4ncnc(N)c34)[nH]c12 [OSI-027] (partner 0.5 µM)
How it was run: as §1

Sorafenib + Olaparib = compound: CNC(=O)c1cc(Oc2ccc(NC(=O)Nc3ccc(Cl)c(C(F)(F)F)c3)cc2)ccn1 [Sorafenib] + O=C(c1cc(Cc2n[nH]c(=O)c3ccccc23)ccc1F)N1CCN(C(=O)C2CC2)CC1 [Olaparib] (partner 8 µM)
How it was run: as §1

Sorafenib + AZD7762 = compound: CNC(=O)c1cc(Oc2ccc(NC(=O)Nc3ccc(Cl)c(C(F)(F)F)c3)cc2)ccn1 [Sorafenib] + NC(=O)Nc1cc(-c2cccc(F)c2)sc1C(=O)N[C@H]1CCCNC1 [AZD7762] (partner 0.2 µM)
How it was run: as §1

Sorafenib + Pictilisib = compound: CNC(=O)c1cc(Oc2ccc(NC(=O)Nc3ccc(Cl)c(C(F)(F)F)c3)cc2)ccn1 [Sorafenib] + CS(=O)(=O)N1CCN(Cc2cc3nc(-c4cccc5[nH]ncc45)nc(N4CCOCC4)c3s2)CC1 [Pictilisib] (partner 1 µM)
How it was run: as §1

Sorafenib + Foretinib = compound: CNC(=O)c1cc(Oc2ccc(NC(=O)Nc3ccc(Cl)c(C(F)(F)F)c3)cc2)ccn1 [Sorafenib] + COc1cc2c(Oc3ccc(NC(=O)C4(C(=O)Nc5ccc(F)cc5)CC4)cc3F)ccnc2cc1OCCCN1CCOCC1 [Foretinib] (partner 0.25 µM)
How it was run: as §1

Sorafenib + Navitoclax = compound: CNC(=O)c1cc(Oc2ccc(NC(=O)Nc3ccc(Cl)c(C(F)(F)F)c3)cc2)ccn1 [Sorafenib] + CC1(C)CCC(c2ccc(Cl)cc2)=C(CN2CCN(c3ccc(C(=O)NS(=O)(=O)c4ccc(N[C@H](CCN5CCOCC5)CSc5ccccc5)c(S(=O)(=O)C(F)(F)F)c4)cc3)CC2)C1 [Navitoclax] (partner 0.5 µM)
How it was run: as §1

Sorafenib + Linsitinib = compound: CNC(=O)c1cc(Oc2ccc(NC(=O)Nc3ccc(Cl)c(C(F)(F)F)c3)cc2)ccn1 [Sorafenib] + C[C@]1(O)C[C@@H](c2nc(-c3ccc4ccc(-c5ccccc5)nc4c3)c3c(N)nccn32)C1 [Linsitinib] (partner 1 µM)
How it was run: as §1

Sorafenib + Bortezomib = compound: CNC(=O)c1cc(Oc2ccc(NC(=O)Nc3ccc(Cl)c(C(F)(F)F)c3)cc2)ccn1 [Sorafenib] + CC(C)C[C@H](NC(=O)[C@H](Cc1ccccc1)NC(=O)c1cnccn1)B(O)O [Bortezomib] (partner 0.002 µM)
How it was run: as §1

Sorafenib + Crizotinib = compound: CNC(=O)c1cc(Oc2ccc(NC(=O)Nc3ccc(Cl)c(C(F)(F)F)c3)cc2)ccn1 [Sorafenib] + C[C@@H](Oc1cc(-c2cnn(C3CCNCC3)c2)cnc1N)c1c(Cl)ccc(F)c1Cl [Crizotinib] (partner 1 µM)
How it was run: as §1

Sorafenib + Lapatinib = compound: CNC(=O)c1cc(Oc2ccc(NC(=O)Nc3ccc(Cl)c(C(F)(F)F)c3)cc2)ccn1 [Sorafenib] + CS(=O)(=O)CCNCc1ccc(-c2ccc3ncnc(Nc4ccc(OCc5cccc(F)c5)c(Cl)c4)c3c2)o1 [Lapatinib] (partner 2 µM)
How it was run: as §1

Sorafenib + Alpelisib = compound: CNC(=O)c1cc(Oc2ccc(NC(=O)Nc3ccc(Cl)c(C(F)(F)F)c3)cc2)ccn1 [Sorafenib] + Cc1nc(NC(=O)N2CCC[C@H]2C(N)=O)sc1-c1ccnc(C(C)(C)C(F)(F)F)c1 [Alpelisib] (partner 2 µM)
How it was run: as §1

NCI-H1648
relative viability (Sorafenib; 0.08 µM): 0.921
relative viability (Sorafenib; 0.253 µM): 0.53
relative viability (Sorafenib; 2.53 µM): 0.925
relative viability (Sorafenib; 8 µM): 0.726
relative viability (Sorafenib + Pemetrexed; first compound 0.08 µM): 0.771
relative viability (Sorafenib + Pemetrexed; first compound 2.53 µM): 0.708
relative viability (Sorafenib + Pemetrexed; first compound 8 µM): 0.731
relative viability (Sorafenib + Tozasertib; first compound 0.08 µM): 0.566
relative viability (Sorafenib + Tozasertib; first compound 0.253 µM): 0.4
relative viability (Sorafenib + Tozasertib; first compound 2.53 µM): 0.282
relative viability (Sorafenib + Tozasertib; first compound 8 µM): 0.405
relative viability (Sorafenib + Palbociclib; first compound 0.08 µM): 0.307
relative viability (Sorafenib + Palbociclib; first compound 2.53 µM): 0.249
relative viability (Sorafenib + Palbociclib; first compound 8 µM): 0.231
relative viability (Sorafenib + Vorinostat; first compound 0.08 µM): 0.404
relative viability (Sorafenib + Vorinostat; first compound 2.53 µM): 0.482
relative viability (Sorafenib + Vorinostat; first compound 8 µM): 0.321
relative viability (Sorafenib + Decitabine; first compound 0.08 µM): 0.521
relative viability (Sorafenib + Decitabine; first compound 2.53 µM): 0.682
relative viability (Sorafenib + Decitabine; first compound 8 µM): 0.409
relative viability (Sorafenib + Trametinib; first compound 0.08 µM): 0.468
relative viability (Sorafenib + Trametinib; first compound 2.53 µM): 0.454
relative viability (Sorafenib + Trametinib; first compound 8 µM): 0.258
relative viability (Sorafenib + OSI-027; first compound 0.08 µM): 0.235
relative viability (Sorafenib + OSI-027; first compound 0.253 µM): 0.264
relative viability (Sorafenib + OSI-027; first compound 2.53 µM): 0.247
relative viability (Sorafenib + OSI-027; first compound 8 µM): 0.247
relative viability (Sorafenib + Olaparib; first compound 0.08 µM): 0.787
relative viability (Sorafenib + Olaparib; first compound 2.53 µM): 0.76
relative viability (Sorafenib + Olaparib; first compound 8 µM): 0.721
relative viability (Sorafenib + AZD7762; first compound 0.08 µM): 0.704
relative viability (Sorafenib + AZD7762; first compound 2.53 µM): 0.74
relative viability (Sorafenib + AZD7762; first compound 8 µM): 0.498

Calu-6
relative viability (Sorafenib; 0.08 µM): 1.06
relative viability (Sorafenib; 0.253 µM): 0.959
relative viability (Sorafenib; 2.53 µM): 0.925
relative viability (Sorafenib; 8 µM): 0.711
relative viability (Sorafenib + Pictilisib; first compound 0.08 µM): 0.964
relative viability (Sorafenib + Pictilisib; first compound 0.253 µM): 0.805
relative viability (Sorafenib + Pictilisib; first compound 2.53 µM): 0.864
relative viability (Sorafenib + Pictilisib; first compound 8 µM): 0.351
relative viability (Sorafenib + Foretinib; first compound 0.08 µM): 0.973
relative viability (Sorafenib + Foretinib; first compound 0.253 µM): 0.852
relative viability (Sorafenib + Foretinib; first compound 2.53 µM): 0.816
relative viability (Sorafenib + Foretinib; first compound 8 µM): 0.622
relative viability (Sorafenib + Navitoclax; first compound 0.08 µM): 0.887
relative viability (Sorafenib + Navitoclax; first compound 0.253 µM): 0.794
relative viability (Sorafenib + Navitoclax; first compound 2.53 µM): 0.724
relative viability (Sorafenib + Navitoclax; first compound 8 µM): 0.457
relative viability (Sorafenib + Linsitinib; first compound 0.08 µM): 0.885
relative viability (Sorafenib + Linsitinib; first compound 2.53 µM): 0.904
relative viability (Sorafenib + Linsitinib; first compound 8 µM): 0.778
relative viability (Sorafenib + Bortezomib; first compound 0.08 µM): 0.948
relative viability (Sorafenib + Bortezomib; first compound 0.253 µM): 0.936
relative viability (Sorafenib + Bortezomib; first compound 2.53 µM): 0.934
relative viability (Sorafenib + Bortezomib; first compound 8 µM): 0.61
relative viability (Sorafenib + Crizotinib; first compound 0.08 µM): 0.928
relative viability (Sorafenib + Crizotinib; first compound 0.253 µM): 0.735
relative viability (Sorafenib + Crizotinib; first compound 2.53 µM): 0.679
relative viability (Sorafenib + Crizotinib; first compound 8 µM): 0.366
relative viability (Sorafenib + Lapatinib; first compound 0.08 µM): 1.04
relative viability (Sorafenib + Lapatinib; first compound 0.253 µM): 0.984
relative viability (Sorafenib + Lapatinib; first compound 2.53 µM): 0.99
relative viability (Sorafenib + Lapatinib; first compound 8 µM): 0.378
relative viability (Sorafenib + Olaparib; first compound 0.08 µM): 0.538
relative viability (Sorafenib + Olaparib; first compound 2.53 µM): 0.531
relative viability (Sorafenib + Olaparib; first compound 8 µM): 0.306
relative viability (Sorafenib + Alpelisib; first compound 0.08 µM): 0.923
relative viability (Sorafenib + Alpelisib; first compound 0.253 µM): 0.954
relative viability (Sorafenib + Alpelisib; first compound 2.53 µM): 0.948
relative viability (Sorafenib + Alpelisib; first compound 8 µM): 0.487
